From article PMC10895678 (Journal of Medicinal Chemistry, 2024)
Several values for one entry are separate records, joined by “and”; a condition that tells them apart may be missing. Equal values may be shown once. Read-outs that look alike come from different tables or passages of the source.

How the values were obtained:
[1] = Mouse PK, multiple oral dosing of single compounds; assay type: in vivo, KM mice; conditions: for AUC(0-inf) / Cmax / Tmax / half-life: po
Source text: Methods for combined single dosing (BGAz001–005) and dosing of single compounds multiple times (BGAz004 and BGAz005) are described in detail in the Supporting Information (PK Data).
Report on PK results of BGAz-004 by multiple oral dosing
7 Materials and instrument combined dosing
An MS2 Turnover type oscillator was purchased from IKA Work’s Guangzhou (China), and a 5415R ChromatographicanalyseswereconductedusinganAgilent1290InfinityIIhighperformanceliquidchromatography andAgilentTechnologies6470TripleQuadLC/MS.Propranolol(≥90%inpurity,internalstandard,IS)waspurchased fromtheSigmaChemicalCo.(China).Formicacid(HPLCgrade)andmethanol(HPLCgrade)werepurchasedfrom DIKMACo.(China).Allchemicalsandsolventswereanalyticalgrade.WaterwaspurifiedusingaMillipore(AK,USA) laboratoryultra-purewatersystem(0.2μmfilter).
KMmice,weighing25–35g(BeijingVitalRiverLaboratoryAnimalTechnologyCo.,Ltd.,China)wereutilisedforthe studies.The protocols were approved by the Animal Care and Use Committee, GIBH. Animals were maintained on standard animal chow and waterad libitum, in a climate-controlled room (23±1 °C 30–70% relative humidity, a minimumof tenexchangesof roomairperhouranda12hlight/darkcycle)foroneweekpriortoexperiments.
9 Pharmacokinetic studies
Compound BGAz-004 were dissolved in the solution containing DMSO (2%), ethanol (4%), Cremophor EL (4%) and ddH2O (90%).The mice were given solution with 30 mg/kg bygastric gavagefor 3 days.Whole blood samples (100μL)wereobtainedfromtheorbitalvenousplexusatthefollowingtimepointsafterthethirddaydosing:5,15,30 min and 1, 3, 5, 8, 24 hour. Whole blood samples were collected in heparinised tubes. The plasma fraction was immediately separated by centrifugation. The mice were humanely euthanasia by carbon dioxide 24 hours after […]
10 Plasma sample analysis
10.1 Standard curve sample preparation
ThecompoundsweredissolvedinDMSO(2mg/mL)anddilutedwithtoseriesconcentration(methanol:H 2O,1:1,10 μL) and blank plasma (50 μL) were added to 1.5 mL tubes and vortexed for 3 min, then acetonitrile-containing internalstandard(150μL)wasaddedandvortexedforafurther5min,andsubsequentlyspuninacentrifugeat13000 […]
10.2 Plasma and preparation
Plasmasampleswerepreparedusingaproteinprecipitationmethod.Solution(10μL,methanolH 2O,1:1)andplasma samples(50μL)wereaddedto1.5mLtubesandvortexfor3min,thenacetonitrile-containinginternalstandard(150 μL)wasaddedandvortexfor5min,andsubsequentlyspuninacentrifugeat13000× gfor40minat4°C.
Aftercentrifugation,supernatant(100μL)wastransferto96wellplatesandanalysedbyLC-MS/MSusinganAgilent 1290InfinityIIHPLCandanAgilentTechnologies6470TripleQuadLC/MS.
Report on PK results of BGAz-005 by multiple oral dosing
13 Materials and instrument combined dosing […]
fromtheSigmaChemicalCo.(China).Formicacid(HPLCgrade)andmethanol(HPLCgrade)werepurchased from […]
15 Pharmacokinetic studies
Compound BGAz-005 were dissolved in the solution containing DMSO (2%), ethanol (4%), Cremophor EL (4%) […]
16 Plasma sample analysis
16.1 Standard curve sample preparation
16.2 Plasma and preparation

[2] = system: HepG2 cells; assay: HepG2 mitochondrial dysfunction (Glu/Gal cytotoxicity, MTT); assay type: cell-based; conditions: glucose medium
Procedure: Compounds were solubilized to 30 mM in DMSO. The BGAz compounds were added to the HepG2 cell model in a 96-well microplate in half log dilutions from 100–0.0003 μM (final DMSO concentration 0.3%) using both glucose (DMEM consisting of 25 mM glucose) and galactose (DMEM consisting of 10 mM galactose) media. The compounds were incubated with the cell line for 24 h at 37 °C in a humidified CO2 tissue culture incubator, followed by cell viability staining with MTT (3-(4,5-dimethylthiazol-2-yl)-2.5-diphenyltetrazolium bromide) conversion to the Formazan product, determined by absorbance measurement. The cell viability IC50 was determined in HepG2 glucose and metabolism-modified HepG2 galactose, and the fold change difference between the Glu/Gal IC50 was determined. All experiments were performed in duplicate with the mitochondrial toxicity controls rotenone and Antimycin A and the cytotoxin control tamoxifen.

[3] = system: M. tuberculosis H37Rv; assay: Mycobacterial time kill experiments (total viable counts); assay type: cell-based, Mycobacterium tuberculosis; conditions: 96 μM
[4] = system: BCG pTIC6-fbpA; assay type: cell-based, Mycobacterium bovis BCG
[5] = system: M. bovis BCG; assay type: cell-based, Mycobacterium bovis BCG
[6] = system: BCG; assay type: cell-based, Mycobacterium bovis BCG; conditions: 0.5 × MIC
[7] = multiple PO 30 mg/kg, times 4, mean of animals

With `Brc1cc(Br)cc(C2CC(CN3CCCC3)N2Cc2ccccc2Br)c1` (stereo not shown) [BGAz-004] as the molecule, how does the AUC(0-inf) ([1]; KM, mouse, plasma, 30 mg/kg, multiple PO 30 mg/kg, times 4, mean of animals, read-out: AUC(0-∞)) read?
The AUC(0-inf) was 5420 ng·h/mL.

What about the Cmax ([1]; KM, mouse, plasma, 30 mg/kg, multiple PO 30 mg/kg, times 4, mean of animals, read-out: Cmax) of the same molecule?
The Cmax was 364 ng/mL.

What about the Tmax ([1]; KM, mouse, plasma, 30 mg/kg, multiple PO 30 mg/kg, times 4, mean of animals, read-out: Tmax) of the same molecule?
Its Tmax is 1 h.

And the half-life ([1]; KM, mouse, plasma, 30 mg/kg, multiple PO 30 mg/kg, times 4, mean of animals, read-out: t1/2z (converted))?
Its half-life is 8.07 h.

What about the AUC(0-inf) ([1]; KM, mouse, plasma, 30 mg/kg, multiple PO, times 4, 30 mg/kg, summary table, read-out: AUC(0-∞)) of the same molecule?
The AUC(0-inf) was 5420 ng·h/mL.

And the Cmax ([1]; KM, mouse, plasma, 30 mg/kg, multiple PO, times 4, 30 mg/kg, summary table, read-out: Cmax)?
The Cmax was 364 ng/mL.

And the half-life ([1]; KM, mouse, plasma, 30 mg/kg, multiple PO, times 4, 30 mg/kg, summary table, read-out: T1/2 (converted))?
Its half-life is 8.07 h.

What about the Tmax ([1]; KM, mouse, plasma, 30 mg/kg, multiple PO, times 4, 30 mg/kg, summary table, read-out: Tmax) of the same molecule?
Its Tmax is 1 h.

What about the AUC(0-inf) ([1]; KM, mouse, plasma, 30 mg/kg, multiple daily dosing 4 × 30 mg/kg PO, read-out: AUC0-inf) of the same molecule?
The AUC(0-inf) was 5420 ng·h/mL.

And the Cmax ([1]; KM, mouse, plasma, 30 mg/kg, multiple daily dosing 4 × 30 mg/kg PO, read-out: Cmax (Mouse, P.O.))?
Its Cmax is 363 ng/mL.

What about the half-life ([1]; KM, mouse, plasma, 30 mg/kg, multiple daily dosing 4 × 30 mg/kg PO, read-out: T1/2 (Mouse, P.O.) (converted)) of the same molecule?
The half-life was 8.1 h.

What about the Tmax ([1]; KM, mouse, plasma, 30 mg/kg, multiple daily dosing 4 × 30 mg/kg PO, read-out: Tmax (Mouse, P.O.)) of the same molecule?
The Tmax was 1 h.

What about the concentration at 0.083 h ([1]; KM, mouse, plasma, multiple PO 30 mg/kg, times 4, 0.083 h) of the same molecule?
Its concentration at 0.083 h is 214 nM and 115 ng/mL.

And the concentration at 0.25 h ([1]; KM, mouse, plasma, multiple PO 30 mg/kg, times 4, 0.25 h)?
Its concentration at 0.25 h is 361 nM and 195 ng/mL.

What about the concentration at 0.5 h ([1]; KM, mouse, plasma, multiple PO 30 mg/kg, times 4, 0.5 h) of the same molecule?
Its concentration at 0.5 h is 590 nM and 319 ng/mL.

What about the concentration at 1 h ([1]; KM, mouse, plasma, multiple PO 30 mg/kg, times 4, 1 h) of the same molecule?
Its concentration at 1 h is 674 nM and 364 ng/mL.

What about the concentration at 3 h ([1]; KM, mouse, plasma, multiple PO 30 mg/kg, times 4, 3 h) of the same molecule?
Its concentration at 3 h is 594 nM and 321 ng/mL.

And the concentration at 5 h ([1]; KM, mouse, plasma, multiple PO 30 mg/kg, times 4, 5 h)?
The concentration at 5 h was 268 ng/mL and 496 nM.

And the concentration at 8 h ([1]; KM, mouse, plasma, multiple PO 30 mg/kg, times 4, 8 h)?
The concentration at 8 h was 243 ng/mL and 450 nM.

And the concentration at 24 h ([1]; KM, mouse, plasma, multiple PO 30 mg/kg, times 4, 24 h)?
Its concentration at 24 h is 63.7 ng/mL and 118 nM.

And the AUC(0-t) ([1]; KM, mouse, plasma, multiple PO 30 mg/kg, times 4, mean of animals)?
The AUC(0-t) was 4760 ng·h/mL.

And the CL/F ([1]; KM, mouse, plasma, multiple PO 30 mg/kg, times 4, mean of animals, read-out: CLz/F (converted))?
Its CL/F is 95.4 mL/min/kg.

What about the MRT last ([1]; KM, mouse, plasma, multiple PO 30 mg/kg, times 4, mean of animals, read-out: MRT(0-t)) of the same molecule?
The MRT last was 7.85 h.

And the MRT inf ([1]; KM, mouse, plasma, multiple PO 30 mg/kg, times 4, mean of animals, read-out: MRT(0-∞))?
Its MRT inf is 11.7 h.

What about the Vd/F ([1]; KM, mouse, plasma, multiple PO 30 mg/kg, times 4, mean of animals, read-out: Vz/F) of the same molecule?
The Vd/F was 67.5 L/kg.

What about the k el ([1]; KM, mouse, plasma, multiple PO 30 mg/kg, times 4, mean of animals, read-out: λz (converted)) of the same molecule?
The k el was 2.89e-05 s⁻¹.

What about the “AUMC(0-t)” value [1, 7] of the same molecule?
The value was 36514.994 h*h*μg.

What about the “AUMC(0-∞)” value [1, 7] of the same molecule?
The value was 62413.77 h*h*μg.

And the C_last [1, 7]?
Its C_last is 46.151 µg.

And the “R_AUC(t/∞)” value [1, 7]?
The value was 87.55%.

And the “VRT(0-t)” value [1, 7]?
Its value is 41.471 h^2.

And the “VRT(0-∞)” value [1, 7]?
The value was 162.525 h^2.

And the “T1/2 (Mouse, P.O.)” value ([1]; multiple daily dosing 4 × 30 mg/kg PO, 30 mg/kg)?
The value was 8.07 h.

And the “HepG2 cytotoxicity (in words)” value [2]?
Its value is “negligible effect”.

And the “reduction of total viable count” value ([3]; after 6 days of exposure)?
Its value is 0.79 ± 2.20 log10 CFU mL^–1.

And the “reduction of total viable count” value ([3]; after 14 days' exposure)?
Its value is 1.90 ± 1.28 log10 CFU mL^–1.

And the BCG pTIC6-fbpA MIC [4]?
Its BCG pTIC6-fbpA MIC is 20 µM.

What about the “log2FoldChange, gene BCG_0001” value [5] of the same molecule?
The value was -0.1191.

And the “log2FoldChange, gene BCG_0002” value [5]?
Its value is -0.5569.

And the “log2FoldChange, gene BCG_0003” value [5]?
Its value is -0.5971.

And the “log2FoldChange, gene BCG_0004” value [5]?
Its value is -0.2384.

What about the “log2FoldChange, gene BCG_0005” value [5] of the same molecule?
Its value is 0.5266.

And the “TMM and TDM in cell envelope lipids” value [6]?
The value was “significant reduction”.
